{"source": "patent US20250282895A1", "about": "“PHARMACEUTICAL COMPOSITIONS OF CHEMOTHERAPEUTIC AGENTS BASED ON BETA-S[…]-AMINO ACID DERIVATIVES” (priority 2021, published 2025)", "test": "Comparative stability, Formulation 1 (Na3-citrate buffered)", "type": "physicochemical", "conditions": "Formulation 1, 25° C.", "experimental": "The stability of Compound (1c) either as the HCl salt or as the free base was compared to the stability of melphalan HCl and/or bendamustine HCl in various pharmaceutical formulations and at different concentrations and at temperatures of 0° C. or 25° C.\nThe stability of the compounds in the pharmaceutical formulations was determined at concentrations within the range from 0.4 mg/mL to 0.5 mg/mL, from 0.9 mg/mL to 1.1 mg/mL, and from 1.8 mg/mL to 2.1 mg/mL.\nThe amount of the active pharmaceutical ingredient (API) (Compound (1c), melphalan or bendamustine) in the pharmaceutical formulations at different times during storage was determined using HPLC/UV as described in detail for Example 4 and Example 5.\nThe first formulation included a mixture of 57.5 vol-% 1,2-propylene glycol (1,2-PG), 30 vol-% Kolliphor® HS 15 (Solutol®, Macrogol®, BASF AG/SigmaAldrich), and 12.5 vol-% ethanol (EtOH), and the resulting solution was further diluted and adjusted to pH 6.8 using a pH 8.1-8.3 Na3-citrate buffer (51 mM Na3-citrate·2H2O and 73.6 mM NaCl).\nThe pH 8.1-8.3 Na3-citrate buffer was prepared form 1.50 g (5.10 mmol) of Na3-citrate. 2H2O (Na3C6H5O7·2H2O; MW 294.10 g/mol; J. T. Baker, 3650-01) and 0.43 g (7.36 mmol) of sodium chloride (NaCl; MW 58.44 g/mol; SigmaAldrich, S9888) dissolved to 100 mL with double-distilled water (dd-H2O) (Arrowhead). The solution was filtered through a 0.45 μm nylon syringe filter, and the pH of the solution was adjusted to 8.1-8.3 with a saturated aqueous solution of sodium hydrogencarbonate (NaHCO3).\nThe excipient mixture was prepared from 4.77 g (62.7 mmol; 4.6 mL) 1,2-propylene glycol (1,2-PG; MW 76.09 g/mol; d 1.036; Acros Organics, 220870010), 2.52 g (2.40 mL, d 1.05) of melted (15 s microwaving) Kolliphor® HS 15 (BASF AG/SigmaAldrich, 42966), and 0.798 g (17.32 mmol, 1.0 mL) of ethanol (EtOH, MW 46.06 g/mol, d 0.798, KOPTEC, V1016). The clear viscous mixture was warmed to about 40° C. before use (water bath).\nA series of 12 mL glass vials each containing 6.1 mg ([…]) of Compound (1c) mono-hydrochloride salt (corresponding to 5.5 mg of Compound (1c) as the free base) were prepared as described in Example 5 through lyophilization of aliquots of an acidified stock solution.\n(§1) 660 μL (6 vol-%) of pre-warmed excipient mixture were added to the Compound (1c) mono-hydrochloride salt in the vial. Compound (1c) mono-hydrochloride salt was dissolved with gentle heating and vortexing. The viscous solution was further diluted with 10,340 μL (94 vol-%) of pH 8.1-8.3 Na3-citrate buffer to provide 11.0 mL of a clear, colorless formulation with a concentration of 0.5 mg/ml of Compound (1c) as a monohydrochloride salt and a pH of 6-7.\nas §1, with “330” for “660”, “5,170” for “10,340”, “5.5” for “11.0”, “1.0 mg/mL” for “0.5 mg/ml”\nas §1, with “165” for “660”, “2,585” for “10,340”, “2.75” for “11.0”, “2.0” for “0.5”\nThe solutions were placed in glass vials and stored at room temperature (about 25° C.), and the amount of Compound (1c) derived from the mono hydrochloride salt (mono HCl salt) of compound of Formula (1c) was measured at intervals using analytical high pressure liquid chromatography coupled to a UV detector (HPLC/UV) as described in Example 4.", "note": "Where a name gives a salt, the structure may show the parent alone."}
{"smiles": "Cc1ccc(N(CCCl)CCCl)cc1C[C@H](N)CC(=O)O", "note": "[Compound (1c)•HCl, (S)-3-amino-4-(5-(bis(2-chloroethyl)amino)-2-methylphenyl) butanoic acid mono hydrochloride salt]", "values": [{"measurement": "% API", "setting": "pH 6.8, 0.5 hours, 0.4-0.5 mg/mL", "result": 79, "unit": "%"}, {"measurement": "% API", "setting": "pH 6.8, 0.5 hours, 0.9-1.1 mg/mL", "result": 84, "unit": "%"}, {"measurement": "% API", "setting": "pH 6.8, 0.5 hours, 1.8-2.1 mg/mL", "result": 88, "unit": "%"}, {"measurement": "% API", "setting": "pH 6.8, 2.0 hours, 0.4-0.5 mg/mL", "result": 52, "unit": "%"}, {"measurement": "% API", "setting": "pH 6.8, 2.0 hours, 0.9-1.1 mg/mL", "result": 55, "unit": "%"}, {"measurement": "% API", "setting": "pH 6.8, 2.0 hours, 1.8-2.1 mg/mL", "result": 65, "unit": "%"}]}
